In article PMC2174028 (The Journal of Cell Biology, 2002):

B1: sPSGL-1: recombinant soluble form of human PSGL-1 comprising the entire extracellular domain, expressed in CHO cells (protein, UniProt Q14242 18-320, looked up)
extracellular domain: LQLWDTWADEAEKALGPLLARDRRQATEYEYLDYDFLPETEPPEMLRNSTDTTPLTGPGTPESTTVEPAARRSTGLDAGGAVTELTTELANMGNLSTDSAAMEIQTTQPAATEAQTTQPVPTEAQTTPLAATEAQTTRLTATEAQTTPLAATEAQTTPPAATEAQTTQPTGLEAQTTAPAAMEAQTTAPAAMEAQTTPPAAMEAQTTQTTAMEAQTTAPEATEAQTTQPTATEAQTTPLAAMEALSTEPSATEALSMEPTTKRGLFIPFSVSSVTHKGIPMAASNLSVNYPVGAPDHISVKQC
modifications: extracellular domain

Columns and labels:
[1] = test system: P-selectin; conditions: ref Leppänen et al., 2000; cited from earlier work
[2] = test system: P-selectin; assay type: binding; conditions: intermediate or high densities of P-selectin, as a function of wall shear stress

Row | Molecule | Affinity for P-selectin (in words) [1] | Initial tethering of ligand-coupled microspheres to P-selectin (in words) [2]
1 | CC(=O)N[C@H]1[C@H]([C@H](O)[C@H](O)CO)O[C@@](O[C@H]2[C@@H](O)[C@@H](CO)O[C@@H](O[C@@H]([C@H](O[C@@H]3O[C@@H](C)[C@@H](O)[C@@H](O)[C@@H]3O)[C@H](C=O)NC(C)=O)[C@H](O)CO)[C@@H]2O)(C(=O)O)C[C@@H]1O [sLe^x, sialyl Lewis x] | very low affinity | –
2 | B1 | – | tethered at identical rates
